# According to patent publication US20240279302A1, “OLFACTORY RECEPTOR EXPRESSING METHOD AND RESPONSE MEASUREMENT METHOD” (Kao Corporation, priority 2021, published 2024):
# Assays:
# [1] = target: T1, consensus OR4E2 (Homo sapiens, UniProt Q8NGC2, A48T/F285L/G158V/H228Q/I116T/I142V/I197M/I47V/L183P/M219T/M25I/M36V/Q234R/R21W/S209T/S40L/S54R/T201S/T49I/T99A/V118M/V214L); assay: Luciferase assay, sulfur compounds; format: cell-based
# T1 construct: Flag (N); Rho tag (N); expressed in transfected cells; host or cells: HEK293
# T1 sequence (Q8NGC2 1-312 R21W/M25I/M36V/S40L/I47V/A48T/T49I/S54R/T99A/I116T/V118M/I142V/G158V/L183P/I197M/T201S/S209T/V214L/M219T/H228Q/Q234R/F285L limits assumed): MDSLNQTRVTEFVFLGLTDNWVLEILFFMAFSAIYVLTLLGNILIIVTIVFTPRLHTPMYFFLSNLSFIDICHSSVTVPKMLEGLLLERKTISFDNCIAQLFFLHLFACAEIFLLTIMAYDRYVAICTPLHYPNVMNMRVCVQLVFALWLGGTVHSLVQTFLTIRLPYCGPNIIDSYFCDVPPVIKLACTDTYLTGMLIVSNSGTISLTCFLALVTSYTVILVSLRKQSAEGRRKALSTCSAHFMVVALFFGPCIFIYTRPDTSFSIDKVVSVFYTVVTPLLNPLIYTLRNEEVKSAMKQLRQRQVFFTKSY
# Protocol: (§1) A reaction solution as to each consensus olfactory receptor prepared in Examples described above was prepared according to the composition shown in Table 4, left standing for 20 minutes in a clean bench, and then added to each well of a 96-well plate (Becton, Dickinson and Company). The original olfactory receptor was used as to OR4S2. Composition shown in Table 20 was used as to OR11H2 and OR4E2. Subsequently, 100 μL of HEK293 cells suspended in DMEM (Nacalai Tesque, Inc.) was inoculated at 2×10^5 cells/cm^2 to each well, and cultured for 24 hours in an incubator kept at 37° C. and 5% CO2. Cells expressing no olfactory receptor (Mock) were provided as a control.
# (§2) The medium was removed from the cultures prepared in 1), and 75 μL of a test substance solution (methyl mercaptan (MeSH) (CAS: 74-93-1, Tokyo Chemical Industry Co., Ltd.), dimethyl sulfide (DMS) (CAS: 75-18-3, FUJIFILM Wako Pure Chemical Corp.), dimethyl disulfide (DMDS) (CAS: 624-92-0, Tokyo Chemical Industry Co., Ltd.), concentration range: 0 μM, 1 μM, 3 μM, 10 μM, 30 μM, 100 μM, and 300 μM, or dimethyl trisulfide (DMTS) (CAS: 3658-80-8, Tokyo Chemical Industry Co., Ltd.), concentration range: 0 μM, 0.1 μM, 0.3 μM, 1 μM, 3 μM, 10 μM, and 30 μM) prepared with a fresh medium was added thereto. Under a copper ion addition condition, the test substance solution was adjusted to contain 30 μM copper(II) chloride (FUJIFILM Wako Pure Chemical Corp.) in addition to the odorant. The cells were cultured for 4 hours in a CO2 incubator and the luciferase gene was expressed sufficiently in the cells. Luciferase activity was measured using Dual-Glo™ luciferase assay system (Promega Corp.) in accordance with the operation manual of the product. A luminescence value derived from firefly luciferase induced by test substance stimulation in each well of the 96-well plate was divided by a luminescence value derived from Renilla luciferase to calculate a value (fluc/hRluc) as a signal, which was then used in analysis. The signal under each transfection condition was normalized with the signal value (fluc/hRluc) under an odorant stimulation-free condition defined as 0% and the signal value (fluc/hRluc) by stimulation with 10 μM forskolin defined as 100%, and used as a response (%) in analysis.
# [2] = target: T2, consensus OR4C15 (Homo sapiens, UniProt Q8NGM1, A218G/A270V/E23K/G63A/I200A/I247V/I275T/L152F/L222F/L266F/M197L/N174D/N209I/N278T/Q295N/R137W/R299K/T258A/T88R/V55G/V87E/W233R); assay: Luciferase assay, sulfur compounds; format: cell-based
# T2 construct: Flag (N); Rho tag (N); expressed in transfected cells; host or cells: HEK293
# Protocol: as §1, §2
# [3] = target: T3, consensus OR4K17 (Homo sapiens, UniProt Q8NGC6, A163V/E24Q/F120Y/F158L/G263S/I192T/I205M/I296T/I46V/K226R/L86V/P230S/S297A/V197I/V23I/V81M/V91T); assay: Luciferase assay, sulfur compounds; format: cell-based
# T3 construct: expressed in transfected cells; host or cells: HEK293
# T3 sequence (Q8NGC6 with tags, fused parts or gaps V23I/E24Q/I46V/V81M/L86V/V91T/F120Y/F158L/A163V/I192T/V197I/I205M/K226R/P230S/G263S/I296T/S297A): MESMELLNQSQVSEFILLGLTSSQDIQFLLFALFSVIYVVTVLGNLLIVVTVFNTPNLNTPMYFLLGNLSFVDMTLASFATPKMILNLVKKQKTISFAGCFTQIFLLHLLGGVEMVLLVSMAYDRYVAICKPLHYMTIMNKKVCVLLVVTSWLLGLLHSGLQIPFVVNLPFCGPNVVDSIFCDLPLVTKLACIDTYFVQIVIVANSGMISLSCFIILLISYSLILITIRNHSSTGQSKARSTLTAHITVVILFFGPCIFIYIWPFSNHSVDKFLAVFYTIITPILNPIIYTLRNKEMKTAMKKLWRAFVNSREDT
# Protocol: as §1, §2
# [4] = target: T4, consensus OR11H2 (Homo sapiens, UniProt Q8NH07, A157T/A61V/C266F/D203A/E289A/F213L/F41L/F62C/G242R/I210T/I230L/I288V/I49T/K181M/K238L/L128F/L146H/L162I/M76I/N106T/N25R/P269S/Q137R/Q308R/Q30L/R68Q/S246A/S268G/T131A/T283A/T37K/V63A/Y156C); assay: Luciferase assay, sulfur compounds; format: cell-based
# T4 construct: expressed in transfected cells; host or cells: HEK293
# T4 sequence (Q8NH07 12-326 N25R/Q30L/T37K/F41L/I49T/A61V/F62C/V63A/R68Q/M76I/N106T/L128F/T131A/Q137R/L146H/Y156C/A157T/L162I/K181M/D203A/I210T/F213L/I230L/K238L/G242R/S246A/C266F/S268G/P269S/T283A/I288V/E289A/Q308R): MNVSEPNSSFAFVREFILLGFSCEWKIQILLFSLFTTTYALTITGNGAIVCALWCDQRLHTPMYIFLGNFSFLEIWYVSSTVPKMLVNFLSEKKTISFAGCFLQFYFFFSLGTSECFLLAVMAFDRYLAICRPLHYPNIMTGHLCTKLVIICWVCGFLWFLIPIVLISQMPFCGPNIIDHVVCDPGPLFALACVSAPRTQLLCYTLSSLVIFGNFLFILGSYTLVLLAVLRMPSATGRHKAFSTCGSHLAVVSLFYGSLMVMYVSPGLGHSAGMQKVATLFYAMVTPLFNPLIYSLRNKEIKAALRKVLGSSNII
# Protocol: as §1, §2
# [5] = target: T5, OR4S2 (original olfactory receptor) (Homo sapiens, UniProt Q8NH73); assay: Luciferase assay, sulfur compounds; format: cell-based
# T5 construct: expressed in transfected cells; host or cells: HEK293
# T5 sequence (Q8NH73 1-311): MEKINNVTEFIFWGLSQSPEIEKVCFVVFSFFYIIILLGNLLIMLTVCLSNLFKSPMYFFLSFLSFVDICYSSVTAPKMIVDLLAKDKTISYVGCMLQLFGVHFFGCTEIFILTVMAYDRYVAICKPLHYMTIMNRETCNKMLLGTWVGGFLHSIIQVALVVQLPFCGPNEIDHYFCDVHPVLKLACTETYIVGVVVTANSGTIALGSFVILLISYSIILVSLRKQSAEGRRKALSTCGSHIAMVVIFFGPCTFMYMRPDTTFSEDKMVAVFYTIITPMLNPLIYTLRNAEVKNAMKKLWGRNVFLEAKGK
# Protocol: as §1, §2
# [6] = target: OR4E2 (Homo sapiens, UniProt Q8NGC2); settings: in the presence of a metal ion (JP-A-2020-513564); cited from earlier work
# [7] = tested on: HEK293 cells expressing olfactory receptor; assay: Luciferase assay: ligand responsiveness of consensus vs original olfactory receptors; format: cell-based, human; settings: consensus design
# Protocol: For luciferase assay, a reaction solution was prepared according to composition shown in Table 4, left standing for 20 minutes in a clean bench, and then added to each well of a 96-well plate (Becton, Dickinson and Company). Subsequently, 100 μL of HEK293 cells suspended in DMEM (Nacalai Tesque, Inc.) was inoculated at 2×10^5 cells/cm^2 to each well, and cultured for 24 hours in an incubator kept at 37° C. and 5% CO2. Cells expressing no olfactory receptor (Mock) were provided as a control.
# The medium was removed from the cultures prepared in 2), and 75 μL of a test substance solution with a predetermined concentration prepared with a fresh medium was added thereto. The cells were cultured for 4 hours in a CO2 incubator and the luciferase gene was sufficiently expresses in the cells. Luciferase activity was measured using Dual-Glo™ luciferase assay system (Promega Corp.) in accordance with the operation manual of the product. A luminescence value derived from firefly luciferase induced by test substance stimulation in each well of the 96-well plate was divided by a luminescence value derived from Renilla luciferase to calculate a signal, which was then used in analysis. The signal under each transfection condition was normalized with the signal under a stimulation-free condition defined as 0% and the signal by stimulation with 30 μM forskolin defined as 100%, and used as a response (%) in analysis.
# [8] = in the presence of a copper ion
# T2 sequence (Q8NGM1 1-311 with the stated changes limits assumed): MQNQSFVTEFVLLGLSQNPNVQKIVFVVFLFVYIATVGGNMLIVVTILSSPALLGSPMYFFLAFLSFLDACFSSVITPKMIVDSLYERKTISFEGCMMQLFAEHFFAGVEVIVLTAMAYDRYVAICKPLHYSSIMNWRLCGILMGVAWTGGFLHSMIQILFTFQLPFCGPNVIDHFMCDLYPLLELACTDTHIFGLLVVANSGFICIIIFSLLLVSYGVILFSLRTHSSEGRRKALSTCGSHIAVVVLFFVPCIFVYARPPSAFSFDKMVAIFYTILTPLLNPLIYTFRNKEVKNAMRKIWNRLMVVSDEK
# OR4E2, sequence (Q8NGC2 whole entry): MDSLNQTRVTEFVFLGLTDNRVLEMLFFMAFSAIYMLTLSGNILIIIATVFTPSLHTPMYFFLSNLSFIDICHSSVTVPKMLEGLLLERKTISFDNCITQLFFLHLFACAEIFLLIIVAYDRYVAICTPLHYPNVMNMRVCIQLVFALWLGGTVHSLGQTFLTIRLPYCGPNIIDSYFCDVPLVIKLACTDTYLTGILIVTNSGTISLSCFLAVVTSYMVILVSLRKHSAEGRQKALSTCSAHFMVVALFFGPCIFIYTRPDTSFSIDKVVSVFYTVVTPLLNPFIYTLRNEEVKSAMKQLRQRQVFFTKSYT
molecule,measurement,setting,value
CSC [dimethyl sulfide],EC50,"[1]; consensus OR4E2, 30 μM CuCl2, read-out: EC50(μM) with 30 μM CuCl2",22 µM
same,dose dependence of the response of consensus OR4E2,[1]; [8],dose-dependent manner
same,response of consensus OR4E2,[1]; [8],responded
same,EC50,"[2]; consensus OR4C15, 30 μM CuCl2, read-out: EC50(μM) with 30 μM CuCl2",414 µM
same,dose dependence of the response of consensus OR4C15,[2]; [8],dose-dependent manner
same,response of consensus OR4C15,[2]; [8],responded
same,EC50,"[3]; consensus OR4K17, 30 μM CuCl2, read-out: EC50(μM) with 30 μM CuCl2",188 µM
same,dose dependence of the response of consensus OR4K17,[3]; [8],dose-dependent manner
same,response of consensus OR4K17,[3]; [8],responded
same,EC50,"[4]; consensus OR11H2, 30 μM CuCl2",22 µM
same,dose dependence of the response of consensus OR11H2,[4]; [8],dose-dependent manner
same,response of consensus OR11H2,[4]; [8],responded
same,EC50,"[5]; OR4S2 (original), 30 μM CuCl2, read-out: EC50(μM) with 30 μM CuCl2",22 µM
same,dose dependence of the response of OR4S2,[5]; [8],dose-dependent manner
same,response of OR4S2,[5]; [8],responded
C=CCSSSCC=C [diallyl trisulfide],response of OR4E2,[6],responds
"consensus OR4S2 (b): consensus olfactory receptor polypeptide (protein, OR4S2 consensus-b, consensus olfactory receptor polypeptide) MEKINNVTEFIFWGLSQSPEVQRVCFVVFLFFYIAIVLGNLLIVLTVCLSNSLKSPMYFFLSFLSFVEICYSSVTAPKMIVDLLAKDKTISYVGCMLQLFFVHFFGCTEIFLLTVMAYDRYVAICKPLHYMTIMNRQTCNKLVLGTWVGGFLHSIIQVLLVVQLPFCGPNVIDHYFCDLHPVLKLACTDTFIVGVVVTANSGTIALGSFVILLISYSIILVSLRKQSAEGRRKALSTCGSHITVVILFFGPCIFMYMRPSTTFSEDKMVAVFYTIITPMLNPLIYTLRNAEVKNAMKKLWGRNVFLEAKGK",ligand responsiveness in comparison with the original human receptor,[7],elevates responsiveness
"consensus OR2A25 (b): consensus olfactory receptor polypeptide (protein, OR2A25 consensus-b, consensus olfactory receptor polypeptide) MGGNQTSITEFLLLGFPVGPRIQMLLFGLFSLFYVFTLLGNGTILGLISLDSRLHTPMYFFLSHLAVVDIAYACNTVPQMLVNLLHPAKPISFAGCMTQTFLFLSFAHTECLLLVVMSYDRYVAICHPLRYSAIMTWRVCITLALTSWTLGVLLALIHLVLLLPLPFCRPQKINHFFCEIMAVLKLACADTHINEVMVLAGAISVLVGPLSSIVVSYMCILCAILKIQSGEGQRKAFSTCSSHLCVVGLFYGTAIIMYVGPQYGNPKEQKKYLLLFHSLFNPMLNPLIYSLRNSEVKNTLKRMLEKERAL",ligand responsiveness in comparison with the original human receptor,[7],sufficiently elevated
"consensus OR7D4 (c): consensus olfactory receptor polypeptide (protein, OR7D4 consensus-c, consensus olfactory receptor polypeptide) MEAENHTEVSEFLLLGLSEDPELQPLLFGLFLSMYLVTVLGNLLIILAISSDSHLHTPMYFFLSNLSFVDICFISTTVPKMLVNIQAQSKDISYMGCLTQVYFFMIFAGMDNFLLTVMAYDRFVAICHPLHYTVIMNPRLCGLLVLASWFIIFWVSLVHILLMKRLTFCTGTEIPHFFCELAQVLKVACSDTLINNIVLYVATALLGVFPLTGILFSYSQIVSSLMRMSSTKGKYKAFSTCGSHLSVVSLFYGTGLGVYLSSAVTHSSQSSSIASVMYTVVTPMLNPFIYSLRNKDVKGALGRLLSRAASCP",ligand responsiveness in comparison with the original human receptor,[7],sufficiently elevated
"consensus OR7A17 (a): consensus olfactory receptor polypeptide (protein, OR7A17 consensus-a, consensus olfactory receptor polypeptide) MEPENDTGISEFLLLGLSEEPELQPFLFGLFLSMYLVTVLGNLLIILATISDSHLHTPMYFFLSNLSFADICFISTTVPKMLINIQTQSRVITYAGCITQMCFFVLFGGLDSLLLAVMAYDRFVAICHPLHYTVIMNPRLCGLLVLASWMIAALNSLSQSLMVLWLSFCTDLEIPHFFCELNQVIHLACSDTFLNDMGMYFAAGLLAGGPLAGILYSYSKIVSSIRAISSAQGKYKAFSTCASHLSVVSLFCCTGLGVYLTSAATHNSHTSATASVMYTVATPMLNPFIYSLRNKDIKRALKMSFRGKQ",ligand responsiveness in comparison with the original human receptor,[7],elevates responsiveness
